For 36 molecules, IC50 and growth inhibition results are on record in PubChem BioAssay AID790 (SRMLSC, 2007).

The source made the active and inactive calls. No rule for the calls is given here.

Experiment [1] deals with S. cerevisiae vps1Δ mutant growth inhibition. Kind of experiment: vps1Δ single mutant yeast growth suppression – S. cerevisiae, background strain comparison, dose response (AID 790).
Test in experiment [2]: as above
Particulars: S. cerevisiae vps1Δ mutant growth inhibition; for growth inhibition: at 25 µM (top of the series); for IC50: measured here: background strain growth inhibition.

As for `O=C(NCC(c1cccnc1)N1CCN(c2ccc(F)cc2)CC1)OCc1ccccc1` (stereo not drawn), the IC50 (commonly the midpoint of a concentration-inhibition curve) in experiment [1] is 22.4 µM.
As to `Cc1[nH]nc(N=CC2=C(O)CC(C)(C)CC2=O)c1-c1ccc(Cl)cc1`, the IC50 in experiment [1] is > 10 µM (inactive).
As for `CC(c1nnc(SCn2nnc3ccccc3c2=O)n1-c1ccc(Cl)cc1)N(C)C` (stereo not drawn), the IC50 in experiment [1] is 5.55 µM.
The same measure, in the same setting: the figure for `CC(Sc1ccsc1[N+](=O)[O-])C(=O)NCCc1ccc(Cl)cc1` (stereo not drawn) is > 10 µM (inactive); for `O=S1(=O)C=C(Sc2nnc(-c3ccccc3)o2)c2ccccc21` it is 24.2 µM; for `N=c1c2c(-c3ccccc3)c(-c3ccccc3)n(Cc3ccco3)c2ncn1Cc1ccccc1` it is > 10 µM (inactive).
Same read-out and setting: the figure for `CC1CCN(S(=O)(=O)c2ccc(NC(=O)CCN3C(=O)c4ccccc4C3=O)cc2)CC1` is > 10 µM (inactive).
`Cc1nn(Cc2cccc(C(=O)NC(C)c3ccc(C(C)(C)C)cc3)c2)c(C)c1[N+](=O)[O-]` (stereo not drawn): in experiment [2], the growth inhibition is 23.6% (inactive) and the IC50 was over 10 µM.
Regarding `CCOC(=O)c1c(-n2c(C)cc(C=C3C(=O)NC(=S)NC3=O)c2C)sc2c1CCCC2`, the IC50 in experiment [2] turned out to be 11.5 µM.
Still for that read-out and setting: the value for `OC(c1ccc(Cl)cc1Cl)C(Cc1cccnc1)n1cncn1` (stereo not drawn) was over 10 µM.
As to `N#Cc1ccccc1Cn1cc(C(=O)c2cccs2)c2ccccc21`, the IC50 in experiment [1] is > 10 µM (inactive).
On the same count and under the same terms, the figure for `CC(C)c1ccc(C(=O)CSc2n[nH]c(-c3ccncc3)n2)cc1` is > 10 µM (inactive); for `O=C(NCC1COc2ccccc2O1)c1ccc(Cl)cc1` (stereo not drawn) it is 3.31 µM.
Take `O=[N+]([O-])c1cc(Cl)cc(/C=N\Nc2ccccn2)c1O`: the IC50 in experiment [1] was 3.42 µM.
With `O=C(CN1CCN(c2ccccn2)CC1)Nc1ccc(Oc2ccccc2)cc1`, the IC50 in experiment [1] was > 10 µM (inactive).
The molecule `C=C(C)C1CC=C(CN2CC(C)OC(C)C2)CC1` (stereo not drawn) showed an IC50 in experiment [2] of over 10 µM.
With `CCOc1nc(SCCOc2ccccc2)nc(N(C)C)n1`, the IC50 in experiment [1] is > 10 µM (inactive).
On the same count and under the same terms, the value for `CC1CCC(C(C)C)C(OCC(O)CN2CCN(Cc3ccccc3)CC2)C1` (stereo not drawn) was > 10 µM (inactive).
For `OC(COCc1ccc(Cl)cc1)CN1CC=C(c2ccccc2)CC1` (stereo not drawn), in experiment [2], the concentration for half-maximal inhibition (IC50) stood at 20.8 µM.
On the same count and under the same terms, the figure for `N[C@@H](Cc1c[nH]c2ccccc12)c1nnc(SCc2ccc(Cl)cc2)o1` is 20.4 µM.
As for `COc1ccc(OCCSc2nnc3sc4ccccc4n23)cc1`, in experiment [1], the IC50 was > 10 µM (inactive).
The same measure, in the same setting: the figure for `O=C1C=C(c2ccccc2)C(=O)N1Nc1ccccc1` is 22.5 µM; for `O=C(Nc1nnc(-c2ccc3c(c2)CCCC3)o1)c1ccccc1` it is 0.8 µM.
The same measure, in the same setting: the value for `O=S1(=O)C=C(Sc2nc3ccccc3s2)c2ccccc21` was > 10 µM (inactive).
For `CCCCC(c1nnnn1Cc1ccco1)N1CCN(c2nc3ccccc3s2)CC1` (stereo not drawn), in experiment [2], the IC50 amounted to 3.9 µM.
On to `O=C(C1CCCN(S(=O)(=O)c2ccc(Cl)cc2)C1)N(Cc1cccs1)C1CC1` (stereo not drawn), for which, in experiment [1], the IC50 was 9.94 µM.
Still for that read-out and setting: the figure for `Cc1ccc(C(=O)Nc2ccc(Cc3ccncc3)cc2)cc1[N+](=O)[O-]` is 23.6 µM.
As to `O=C(OCn1ncc(Br)c(Br)c1=O)c1c(F)cccc1F`, in experiment [1], the IC50 was 16.2 µM.
Molecule `Cc1nc(NC(=O)c2ccccc2)sc1-c1csc(Nc2ccc(F)cc2)n1` registered an IC50 in experiment [2] of over 10 µM.
As for `O=C(Nc1nnc(-c2cccs2)o1)c1cccc(C(F)(F)F)c1`, the IC50 in experiment [1] was 1.67 µM (inactive).
Consider `O=S(=O)(Cc1ccccc1Cl)N1CCN(Cc2ccc3c(c2)OCO3)CC1`, for which the IC50 in experiment [1] was > 10 µM (inactive).
Regarding `O=C(OCn1ncc(Br)c(Br)c1=O)c1ccccc1Cl`, the IC50 in experiment [1] is 6.69 µM.
Regarding `CCOc1ccc(NC(=O)N(C2CCCCC2)C(C)c2cccnc2)cc1` (stereo not drawn), the IC50 in experiment [1] is 15.6 µM.
`Cc1cccc(N2CCN(CC(=O)Nc3nccs3)CC2)c1C`: in experiment [2], the growth inhibition was 31.3% (inactive) and the IC50 was over 10 µM.
Take `CCCCCCOc1ccc(CN2CCN(CCO)CC2)cc1`: the IC50 in experiment [1] was > 10 µM (inactive).
Still for that read-out and setting: the value for `CC12CCC(c3c(C(=O)Nc4nccs4)nn(-c4ccccc4)c31)C2(C)C` (stereo not drawn) was > 10 µM (inactive).
